Values after ≈ are worked out from the molar mass of the structure shown.
Key:
Candida albicans = details: 50% growth inhibition, range = minimum and maximum of multiple assays; for MIC C. albicans 24433: strain 24433; for MIC C. albicans 90028: strain 90028
A. flavus ATCC 204304 = experiment: Broth microdilution antifungal susceptibility, NCCLS M38-A; type: cell-based, Aspergillus flavus; details: minimal concentration inhibiting >95% growth; average of at least two assays (except I-l and I-x)
A. fumigatus ATCC 204305 = experiment: as above; type: cell-based, Aspergillus fumigatus; details: minimal concentration inhibiting >95% growth; average of at least two assays (except I-l and I-x)
S. apiospermum = experiment: as above; type: cell-based, Scedosporium apiospermum
Fusarium solani = experiment: as above; type: cell-based; details: strain 96-1; 50% growth inhibition; range = minimum and maximum of multiple assays
Cryptococcus neoformans = experiment: as above; details: 50% growth inhibition, range = minimum and maximum of multiple assays; for MIC C. neoformans 97-14: strain 97-14; for MIC C. neoformans 11239: strain 11239; for MIC C. neoformans 11240: strain 11240
[1] = test system: Trichophyton mentagrophytes; experiment: Dermatophyte broth microdilution, NCCLS M38-A; type: cell-based
Microsporum canis = experiment: Dermatophyte broth microdilution, NCCLS M38-A; type: cell-based
Epidermophyton floccosum = experiment: Dermatophyte broth microdilution, NCCLS M38-A; type: cell-based
Trichophyton rubrum = experiment: Dermatophyte broth microdilution, NCCLS M38-A; type: cell-based
[2] = test system: Trichophyton interdigitale; experiment: Dermatophyte broth microdilution, NCCLS M38-A; type: cell-based
Microsporum gypseum = experiment: Dermatophyte broth microdilution, NCCLS M38-A; type: cell-based
Blastomyces dermatitidis = experiment: Broth microdilution antifungal susceptibility, NCCLS M38-A; type: cell-based
Histoplasma capsulatum = type: cell-based

With `CC[C@H]1O[C@@H](/C(C)=C/[C@H](C)/C=C/[C@H]2[C@@H](C)[C@@H]2/C=C/[C@@H]2O[C@H](CC(=O)O)C[C@H](N(C)Cc3cccnc3)[C@H]2O)CC=C1C` [I-w, (5S,6R)-5-(N-(3-pyridyl)methyl-methylamino)-6-hydroxypolyangioic acid] the “MIC C. albicans 24433” value (Candida albicans) was >32 µg/mL, the “MIC C. albicans 90028” value (Candida albicans) was >32 µg/mL and the “MIC0 A. flavus ATCC 204304” value (A. flavus ATCC 204304) was 4 µg/mL. For the same compound, the “MIC0 A. fumigatus ATCC 204305” value (A. fumigatus ATCC 204305) was 4.25 µg/mL, the “MIC S. apiospermum 94-54” value (S. apiospermum) was >16 µg/mL and the “MIC S. apiospermum 98-38” value (S. apiospermum) was >16 µg/mL. For the same compound, the “MIC S. apiospermum 98-89” value (S. apiospermum) was 2 µg/mL (≈ 3.46 µM), the “MIC F. solani 96-1” value (Fusarium solani) was >16 µg/mL and the “MIC C. neoformans 97-14” value (Cryptococcus neoformans) was 1 µg/mL (≈ 1.73 µM). For the same compound, the “MIC C. neoformans 11239” value (Cryptococcus neoformans) was 0.5 µg/mL (≈ 0.864 µM) and the “MIC C. neoformans 11240” value (Cryptococcus neoformans) was 0.5 to 1 µg/mL.
For `CC[C@H]1O[C@@H](/C(C)=C/[C@H](C)/C=C/[C@H]2[C@@H](C)[C@@H]2/C=C/[C@@H]2O[C@H](CC(N)=O)C[C@H](N(C)C)[C@H]2O)CC=C1C` [I-hh, (5S,6R)-5-(dimethylamino)polyangiamide], the “MIC C. albicans 24433” value (Candida albicans) was 32 µg/mL (≈ 63.9 µM), the “MIC C. albicans 90028” value (Candida albicans) was 32 µg/mL (≈ 63.9 µM) and the “MIC0 Tm” value [1] was 2.82 µg/mL. The “MIC0 Mc” value (Microsporum canis) was 0.7 µg/mL, the “MIC0 A. flavus ATCC 204304” value (A. flavus ATCC 204304) was 2 µg/mL and the “MIC0 Ef” value (Epidermophyton floccosum) was 2.82 µg/mL. The “MIC0 A. fumigatus ATCC 204305” value (A. fumigatus ATCC 204305) was 1 µg/mL, the “MIC0 Tr” value (Trichophyton rubrum) was 2.51 µg/mL and the “MIC S. apiospermum 94-54” value (S. apiospermum) was 32 µg/mL (≈ 63.9 µM). The “MIC S. apiospermum 98-38” value (S. apiospermum) was 32 µg/mL (≈ 63.9 µM), the “MIC S. apiospermum 98-89” value (S. apiospermum) was 1 to 2 µg/mL and the “MIC0 Ti” value [2] was 3.17 µg/mL. For the same compound, the “MIC F. solani 96-1” value (Fusarium solani) was 16 µg/mL (≈ 32 µM), the “MIC C. neoformans 97-14” value (Cryptococcus neoformans) was 1 µg/mL (≈ 2 µM) and the “MIC C. neoformans 11239” value (Cryptococcus neoformans) was 1 µg/mL (≈ 2 µM). The “MIC C. neoformans 11240” value (Cryptococcus neoformans) was 1 µg/mL (≈ 2 µM) and the “MIC0 Mg” value (Microsporum gypseum) was 1.25 µg/mL.
With `CC[C@H]1O[C@@H](/C(C)=C/[C@H](C)/C=C/[C@H]2[C@@H](C)[C@@H]2/C=C/[C@@H]2O[C@H](CCO)C[C@H](N(C)C)[C@H]2O)CC=C1C` [I-ff, (5S,6R)-5-(dimethylamino)polyangi-1,6-diol] the “MIC C. albicans 24433” value (Candida albicans) was 32 µg/mL (≈ 65.6 µM), the “MIC C. albicans 90028” value (Candida albicans) was 32 µg/mL (≈ 65.6 µM) and the “MIC0 A. flavus ATCC 204304” value (A. flavus ATCC 204304) was 1.76 µg/mL. For the same compound, the “MIC0 A. fumigatus ATCC 204305” value (A. fumigatus ATCC 204305) was 2.07 µg/mL, the “MIC S. apiospermum 94-54” value (S. apiospermum) was 32 µg/mL (≈ 65.6 µM) and the “MIC S. apiospermum 98-38” value (S. apiospermum) was 16 µg/mL (≈ 32.8 µM). For the same compound, the “MIC S. apiospermum 98-89” value (S. apiospermum) was 0.5 µg/mL (≈ 1.03 µM), the “MIC0 Blastomyces dermatitidis 04-2167” value (Blastomyces dermatitidis) was 0.06 µg/mL and the “MIC0 Blastomyces dermatitidis 04-2508” value (Blastomyces dermatitidis) was 0.06 µg/mL. For the same compound, the “MIC0 Blastomyces dermatitidis 04-2915” value (Blastomyces dermatitidis) was 0.06 µg/mL, the “MIC0 Blastomyces dermatitidis 05-106” value (Blastomyces dermatitidis) was 0.06 µg/mL and the “MIC0 Blastomyces dermatitidis 05-186” value (Blastomyces dermatitidis) was 0.06 µg/mL. For the same compound, the “MIC0 Blastomyces dermatitidis 05-1391” value (Blastomyces dermatitidis) was 0.06 µg/mL, the “MIC0 Blastomyces dermatitidis 05-1707” value (Blastomyces dermatitidis) was “≦0.015 μg/mL” and the “MIC0 Blastomyces dermatitidis 05-1820” value (Blastomyces dermatitidis) was 0.03 µg/mL. The “MIC0 Blastomyces dermatitidis 05-1829” value (Blastomyces dermatitidis) was 0.06 µg/mL, the “MIC0 Blastomyces dermatitidis 05-2020” value (Blastomyces dermatitidis) was 0.06 µg/mL and the “MIC0 Blastomyces dermatitidis R-3529” value (Blastomyces dermatitidis) was 0.03 µg/mL. For the same compound, the “MIC0 Blastomyces dermatitidis R-35629” value (Blastomyces dermatitidis) was 0.06 µg/mL, the “MIC B. dermatitidis Gu” value (Blastomyces dermatitidis) was >12.5 µg/mL and the “MIC B. dermatitidis Kr” value (Blastomyces dermatitidis) was >12.5 µg/mL. For the same compound, the “MIC B. dermatitidis V” value (Blastomyces dermatitidis) was >12.5 µg/mL, the “MIC F. solani 96-1” value (Fusarium solani) was 8 to 16 µg/mL and the “MIC H. capsulatum G217B” value (Histoplasma capsulatum) was <0.19 µg/mL. The “MIC H. capsulatum GS20” value (Histoplasma capsulatum) was <0.19 µg/mL.
With `CC[C@H]1O[C@@H](/C(C)=C/[C@H](C)/C=C/[C@H]2[C@@H](C)[C@@H]2/C=C/[C@@H]2O[C@H](CC(=O)O)C[C@H](N(CC)CC)[C@H]2O)CC=C1C` [I-z, (5S,6R)-5-(diethylamino)-6-hydroxypolyangioic acid] the “MIC C. albicans 24433” value (Candida albicans) was >32 µg/mL, the “MIC C. albicans 90028” value (Candida albicans) was >32 µg/mL and the “MIC0 Tm” value [1] was 4 µg/mL. For the same compound, the “MIC0 Mc” value (Microsporum canis) was 2 µg/mL, the “MIC0 A. flavus ATCC 204304” value (A. flavus ATCC 204304) was 2.2 µg/mL and the “MIC0 Ef” value (Epidermophyton floccosum) was 4 µg/mL. The “MIC0 A. fumigatus ATCC 204305” value (A. fumigatus ATCC 204305) was 2.1 µg/mL, the “MIC0 Tr” value (Trichophyton rubrum) was 1.25 µg/mL and the “MIC S. apiospermum 94-54” value (S. apiospermum) was >16 µg/mL. For the same compound, the “MIC S. apiospermum 98-38” value (S. apiospermum) was >16 µg/mL, the “MIC S. apiospermum 98-89” value (S. apiospermum) was 0.25 to 0.5 µg/mL and the “MIC0 Ti” value [2] was 0.79 µg/mL. The “MIC B. dermatitidis Gu” value (Blastomyces dermatitidis) was >12.5 µg/mL, the “MIC B. dermatitidis Kr” value (Blastomyces dermatitidis) was >12.5 µg/mL and the “MIC B. dermatitidis V” value (Blastomyces dermatitidis) was >12.5 µg/mL. For the same compound, the “MIC F. solani 96-1” value (Fusarium solani) was >16 µg/mL, the “MIC H. capsulatum G217B” value (Histoplasma capsulatum) was <0.19 µg/mL and the “MIC H. capsulatum GS20” value (Histoplasma capsulatum) was <0.19 µg/mL. For the same compound, the “MIC C. neoformans 97-14” value (Cryptococcus neoformans) was 0.5 to 1 µg/mL, the “MIC C. neoformans 11239” value (Cryptococcus neoformans) was 0.25 to 0.5 µg/mL and the “MIC C. neoformans 11240” value (Cryptococcus neoformans) was 0.5 µg/mL (≈ 0.944 µM). The “MIC0 Mg” value (Microsporum gypseum) was 1.58 µg/mL.

From patent US20070015823A1, “Ambruticin VS compounds” (priority 2004, published 2007)
